The nature of series [1]: metabolic stability in human liver microsomes. The class given is in vitro ADME. The procedure:
The metabolic stability of AR71 was assessed in vitro using human liver microsomes (HLMs). […] After 120 min of incubation with HLMs, 85% of AR71 remained unchanged. However, during this time, six metabolites were formed (Figure S4a–d, Supplementary Materials). The metabolite M1 was formed in the highest amount (5.5%). The others were formed in amounts of 0.6% to 1.2%. Based on an analysis of their molar masses, and with the help of MetaSite 6.0.1, a type of metabolic transformation was proposed. The identified in vitro AR71 metabolic pathways and the most probable site of metabolism predicted by MetaSite 6.0.1 are shown in Table 1.
Metabolic stability was assessed in human liver microsomes (HLMs, Sigma-Aldrich, St. Louis, MO, USA), as previously described. After 120 min of incubation with HLMs, liquid chromatography–mass spectrometry (Waters ACQUITY TQD system with the TQ Detector, Waters, Milford, MA, USA) was used to identify the formed metabolites. MetaSite 6.0.1 software (Molecular Discovery Ltd., Hertfordshire, U.K.) was used to predict the most probable sites of metabolism in silico.

A further series relates to human astrocytes. The series is described as follows: viability of human astrocytes (MTT assay). The class given is cell-based. The conditions noted are these: for pIC50: Homo sapiens, Astrocyte. The protocol: We investigated the effect of AR71 in a wide range of concentrations (0.78–100 μM) on the viability of human astrocyte cell lines after 2, 24, 48, and 72 h of incubation (Figure 6). Prolonged incubation of human astrocytes with AR71 caused a dose-dependent decrease in cell viability.
The astrocyte cell line from the human cerebral cortex was purchased from ScienCell Research Laboratories (San Diego, CA, USA; Cat no. 1800) and maintained according to the protocol recommended by the company (the ScienCell Research Laboratories’ protocol).
The colorimetric MTT assay using 3-(4,5-dimethylthiazol-2-yl)-2,5-diphenyltetrazolium bromide (MTT; Sigma-Aldrich Chemical Co. Ltd., Saint Louis, MO, USA) was used for evaluation of astrocytes viability. The experiment was carried out following the procedure described in detail previously. Astrocytes were seeded onto 96-well plates at a final density of 10 × 10^3 cells/well. Following 24 h of culture, the cells were treated with AR71 (0.78–100 μM) for […], 24, 48, or 72 h. After the respective incubation periods, MTT solution was added to the cell culture for another four hours. Absorbance was measured at 570 nm using a BioTek EL 800× microplate reader (BioTek, Winooski, VT, USA), with the value directly proportional to the number of viable cells. Cell viability was calculated by the following formula: Viability [%] = (A/AC) × 100%, where A represents the absorbance of the investigated sample and AC represents the absorbance of the negative control (untreated cells). The positive control (vehicle) was 0.1% DMSO.
On the technique in general: Formazan colour is commonly taken as a measure of viable cells.

Series [2] concerns SH-SY5Y cells. Format: cell-based, human. The conditions noted are these: without rotenone. The protocol: To test neuroprotective activity, SH-SY5Y cells were pre-treated for 1 h with various concentrations of AR71, after which rotenone (6.25 μM) was added and the cells were cultured for another 24 h. […] Co-treatment with AR71 protected cells from the toxic effect of rotenone, resulting in LDH leakage ranging from 10 to 22% only.
The protective effect of AR71 against rotenone-induced toxicity in SH-SY5Y cells was assessed by measuring LDH release. SH-SY5Y cells (6 × 10^3 cells/100 μL/well) were seeded in black 96-well plates Nunclon^TM Delta Surface no. 137101 (ThermoFischer Scientific, Waltham, MA, USA) and cultured overnight. The next day, the medium was removed and replaced with a fresh one with an increasing concentration of AR71 (0.0975–50 μM). After 1 h of compound pre-treatment, the neurotoxin rotenone (6.25 μM) was added, and the cells were cultured for another 24 h. For the negative and positive controls, cells were treated with 0.1% DMSO and 6.25 μM of rotenone alone, respectively. The cells treated with the compound alone were used to compare the effect with those co-treated with rotenone. After 24 h, the level of LDH leakage was measured by the CytoTox-ONE™ Homogeneous Membrane Integrity Assay (Promega, Madison, WI, USA) following the manufacturer’s protocol. Briefly, 100 μL of CytoTox-ONE™ reagent (Promega, Madison, WI, USA) was added to each well, and the cells were incubated for 10 min at room temperature protected from light. The fluorescence was measured using the multimode plate reader Tecan Spark (Tecan, Männedorf, Switzerland) with an excitation wavelength of 560 nm and an emission wavelength of 590 nm.

Series [3] deals with SH-SY5Y cells. The series is described as follows: mitochondrial membrane potential (JC-10). Format: cell-based, human. The settings on record: 0.78 μM. The protocol: Neurotoxin-like rotenone induces oxidative stress inside cells that might influence mitochondrial membrane potential (MMP). Maintaining unaffected MMP is essential for neuroprotection. In our study, we tested the effect of AR71 on MMP in the presence and absence of rotenone.
Next, the effect of AR71 (0.78 μM) when co-treated with rotenone was tested; 1 μM carbonyl cyanide m-chlorophenylhydrazone (CCCP) was used as a positive control.
The MMP was measured by a commercially available kit (Sigma Aldrich, MAK159, for live cells) that utilises a cationic, lipophilic dye JC-10. It allows for ratiometric analysis of mitochondrial membrane potential, where a shift from orange (λEX/λEM: 540 nm/590 nm) to green fluorescence (λEX/λEM: 490 nm/525 nm) is indicative of compromised mitochondria. For this assay, the SH-SY5Y cells (1 × 10^4 cells/well) were seeded in a black-sided clear bottom 96-well plate (Thermo Scientific Nunclon^TM Delta Surface no. 137101, Denmark) in a complete culture medium. First, to choose the optimal concentration of rotenone in this assay, a dose–response effect of rotenone (0.05, 0.5, 5, 50 μM) was studied. Next, the cells were pre-treated with AR71 (0.78 μM) for 1 h before rotenone stimulation (50 μM) for another 3 h. […] The positive control was carbonyl cyanide m-chlorophenylhydrazone (CCCP; 1 μM)—uncoupling agent on the proton gradient. After incubation, 50 μL/well of the JC-10 dye loading solution was added to each well with cells. The plate was incubated for 45 min in the incubator. Then, 50 μL/well of Assay Buffer B was added to each well, and the fluorescence was monitored immediately. The red/green fluorescence intensity ratio was used to calculate the results.

Structures are written as SMILES. pIC50: −log10 of the molar value.

For orientation: pIC50 means the IC50 on a negative log10 scale, so that one unit is a factor of ten. Higher therefore signals a low IC50. For the compound `COc1cc(/C=C/C(=O)c2ccc(OCCCN3CCCCC3)cc2)cc(OC)c1OC` [AR71, (E)-3-(3,4,5-trimethoxyphenyl)-1-(4-(3-(piperidin-1-yl)propoxy)phenyl)prop-2-en-1-one], the “number of metabolites formed” value in series [1] (120 min incubation with HLMs) was “six”. Also, the “parent compound remaining unchanged” value came out at 85% in series [1] (120 min incubation with HLMs) and 85.40% in series [1] (120 min incubation with HLMs, listed as AR-71). Further, the “metabolic stability” value in series [1] (HLMs) was “rather metabolically stable”. Moreover, in the series with human astrocytes (1.56 and 3.12 μM, 48 h, did not persist after 72 h), the “effect on astrocyte viability at low concentrations” value is given as “statistically significant proliferation”. Further, the pIC50 in the series with human astrocytes (2 h incubation) was 4.38; in the series on human astrocytes (24 h incubation) it was 4.69; with human astrocytes (48 h incubation), 4.90; in the series on human astrocytes (72 h incubation), 5.01. Further, the “LDH leakage compared with control cells” value in the series with SH-SY5Y cells [2] (50 μM) is recorded as roughly 60%. Moreover, the “effect on cell membrane integrity (LDH)” value in the series with SH-SY5Y cells [2] (0.0975–25 μM) is listed as “did not disturb the cell membrane”. Also, the “effect on MMP of compound alone” value with SH-SY5Y cells [3] was “did not affect mitochondrial membrane potential”. The “minimisation of loss of MMP compared with rotenone-treated cells” value with SH-SY5Y cells [3] (1 h pre-treatment, then rotenone 50 μM for 3 h) was 20%.

Source of the values: paper PMC11311998, “AR71, Histamine H3 Receptor Ligand—In Vitro and In Vivo Evaluation (Anti-Inflammatory Activity, Metabolic Stability, Toxicity, and Analgesic Action)” (International Journal of Molecular Sciences, 2024).
